According to US20170363632A1, “Biomarker Kit for Metastatic Breast Cancer Prognosis and Uses Thereof” (University of Maryland, Baltimore, priority 2016, published 2017):
Entries after “also recorded” stand apart in the source; their conditions may differ. Values belong to the molecule of their own block, whether it stands above or below them.

How the values were obtained:
[1] = system: PI3K pathway (phosphorylation levels of AKT) in obscurin-knockdown MCF10A cells; assay: Western blot of AKT phosphorylation after PI3K inhibitor treatment; format: cell-based
Method: (§1) Cell lysates were prepared in radioimmuno-precipitation assay (RIPA) buffer supplemented with cocktails of protease inhibitors (Roche, Mannheim, Germany), and phosphatase inhibitors ([…], 100 mM Sodium Flouride, 115 mM Sodium Molybdate, 100 mM Sodium Orthovanadate, 400 mM Sodium Tartrate Dihydrate, 100 mM β-Glycerophosphate, 100 mM Sodium Pyrophosphate, and 10 mM EGTA). Protein lysates were electrophoresed on SDS-NuPAGE gel (Thermo Fisher Scientific, Waltham, Mass.), transferred to nitrocellulose membranes, and probed with primary antibodies as specified in the text, and the appropriate […] secondary antibodies (Jackson ImmunoResearch Laboratories). Immunoreactive bands were visualized using AMERSHAM ECL prime western blotting detection reagent (GE Healthcare Life Sciences), and densitometry was performed with Image J software. Treatment of cells followed by lysate preparation and immunoblotting analysis was repeated at least three independent times.
(§2) To verify the effectiveness of the two inhibitors in suppressing the PI3K pathway, whether the phosphorylation levels of AKT were reduced following treatment was examined. […] Whether inhibition of PI3K reverses epithelial to mesenchymal transition in obscurin-knockdown cells was evaluated.

[2] = system: obscurin-knockdown MCF10A cells; assay: Mammosphere culture in ultra-low attachment conditions; format: cell-based; set-up: mammosphere formation: dose or concentration left out as unconfirmed; details: for reduction in mammosphere formation: spheres ≧100 μm
Method: Single MCF10A cells stably transduced with obscurin shRNA were plated in ultralow attachment plates (Corning, Lowell, Mass., USA) at a density of 10,000 cells/mL in 2 mL serum-free growth media (DMEM/F12 with GlutaMAX™), supplemented with insulin (10 μg/mL), hydrocortisone (0.5 μg/mL), cholera toxin (100 ng/mL), epidermal growth factor (20 ng/mL), 1% penicillin-streptomycin and puromycin (1.5 μg/mL). Twenty-four hours following initial plating, cell cultures were supplemented with 2 mL serum-free growth media that contained the indicated concentration of LY294002, BKM120, or DMSO vehicle control every day for 10 days at which time point spheres were measured and those ≧100 μm were counted as tumor spheres.

[3] = system: obscurin-knockdown MCF10A cells; assay: Matrigel invasion assay; format: cell-based; details: dose-dependent, 16 h
Method: Invasion was measured by adding 250,000 cells suspended in 0.5 mL growth media containing the specified concentration of LY294002, BKM120, or DMSO vehicle control to the upper chamber of a Matrigel-coated invasion chamber (BD Biosciences, San Jose, Calif.). The lower chamber contained growth media supplemented with 10% FBS. The inserts were incubated at 37° C., 5% CO2 for 16 h. At the end of the 16 h incubation period, the cells that had invaded in the lower chamber were fixed and stained with 0.5% crystal violet in 20% methanol. The number of invaded cells was quantified by counting at least 6 random fields from 3 independent experiments under an inverted light microscope (Olympus IX51) with a 10× objective.

[4] = system: obscurin-knockdown MCF10A cells; assay: Wound healing assay; format: cell-based; details: DMSO vehicle ≧20%
Method: Wound healing was measured by growing confluent MCF10A cell monolayers stably expressing obscurin shRNA in six-well tissue culture dishes (Corning). A scrape was made through the monolayer with a sterile plastic pipette tip and fresh media containing LY294002, BKM120, or DMSO vehicle control was added at the indicated concentrations. Images were taken with an inverted microscope (10× objective) at time 0 h and after a 6 h incubation period at 37° C., 5% CO2. Migration was expressed as the average of the difference between the measurement at time zero and 6 h obtained from 3 independent experiments.

[5] = system: adherent MCF10A obscurin-knockdown or scramble control cells; assay: Cell viability, AlamarBlue assay; format: cell-based; details: different concentrations of BKM120, 24 h
Method: (§3) Cell viability of MCF10A obscurin-knockdown and scramble control cells treated with the specified concentrations of LY294002 and BKM120 inhibitors or vehicle DMSO for 24 h was measured using the AlamarBlue assay (Life Technologies) (9). In brief, the AlamarBlue reagent was added to the cell culture at 10% v/v and incubated for 16 h at 37° C., 5% CO2. The percentage (%) of AlamarBlue reduction was determined by measuring absorbance at 550 and 620 nm. Data are presented as the percentage of AlamarBlue reduced per number of cells.

[6] = system: MCF10A obscurin-knockdown cells; assay: Bright-field microscopy of cell morphology and cell-cell junctions; format: cell-based; details: 1 mM BKM120
From the text: Taken together, these findings indicate that blockade of the PI3K pathway in obscurin-depleted breast epithelial cells via pharmacological treatment or molecular means effectively reverses epithelial to mesenchymal transition.

[7] = system: obscurin-knockdown MCF10A cells; assay: Western blot of epithelial and mesenchymal (EMT) proteins after PI3K inhibitor treatment; format: cell-based
Method: as §1, §2

[8] = system: obscurin-knockdown MCF10A cells; assay: Microchannel single cell migration; format: cell-based; set-up: dose or concentration left out as unconfirmed
Method: The microchannel device was fabricated by standard lithography and coated with 20 μg/mL collagen type I (BD Biosciences, San Jose, Calif.) (12-16). Cells were trypsinized, resuspended in serum-containing media to neutralize the trypsin, and subsequently washed in serum-free media. A suspension of 5×10^4 cells was added to the inlet port, and cells were transported along the seeding channel by pressure-driven flow. Within 5 min, the cell suspension was removed and replaced with 100 μL of serum-free media containing the specified concentrations of LY294002, BKM120, or DMSO vehicle control. Serum-containing media with the indicated concentrations of LY294002, BKM120, or DMSO was added to the top-most inlet port, thus forming a chemoattractant gradient. Chambers were placed in an enclosed, humidified microscope stage at 5% CO2 and 37° C. (TIZ, Tokai Hit Co., Japan or Okolab, Italy). […] Instantaneous cell velocity was calculated by dividing each interval displacement by the time interval (20 min), and the mean velocity for a given cell was computed by averaging instantaneous velocities for all time intervals. Chemotactic index was calculated by dividing the end-to-end displacement by the total path length of the cell. […]

[9] = Cell viability, AlamarBlue assay; format: cell-based; details: human, adherent MCF10A obscurin-knockdown or scramble control cells; 25 µM LY294002, 24 h; read-out: decrease in cell viability (reduction of AlamarBlue)
Method: as §3

GST-obscurin-PH = biological target: T1, GST-obscurin-PH (human, UniProt Q5VST9 5895-6004); assay: SPR, Biacore 3000; GST-obscurin-PH immobilized on CM5 chip, HIS-PI3K/p85-SH3 as analyte at 8-250 nM; 1:1 Langmuir model
T1 construct: domain: Pleckstrin Homology (PH) domain; Expressed in bacteria, about 37 kDa; also called GST-obscurin-PH domain; recombinant obscurin-PH domain fused to GST; not shown: glutathione-S-transferase (GST) tag encoded by the PGEX vector (GE Healthcare)
T1 sequence (looked up): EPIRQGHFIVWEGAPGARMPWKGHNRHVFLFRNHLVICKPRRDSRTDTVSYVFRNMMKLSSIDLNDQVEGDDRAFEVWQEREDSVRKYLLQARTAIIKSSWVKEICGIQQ
Method: Surface plasmon resonance was performed using a BiaCore 3000 instrument as described (6, 19, 21). In particular, the GST-obscurin-PH domain was used as ligand and was immobilized on a carboxymethyl-dextran sensor (CM5) chip, while the HIS-PI3K-p85/SH3 domain was used as analyte at varying concentrations ranging from 8-250 nM. The flow rate for analyte injection was 20 μl/min. For each analyte concentration, association was measured for 180 sec and dissociation was measured over another 180 sec. Data were evaluated with the 1:1 Langmuir model and the Heterogeneous Ligand model (BIAevaluation Software 3.1, Biacore). The association (kₐ, M⁻¹ s⁻¹) and dissociation (kd, s⁻¹) rate constants as well as the association (KA, M⁻¹) and dissociation (KD, M) equilibrium constants were determined.

control GST-protein = biological target: T2, control GST-protein (UniProt P08515 1-218 = GST); assay: GST pull-down on glutathione-Sepharose beads, immunoblot with His-tag antibody
T2 construct: Negative control in the GST pull-down; also called GST-alone
T2 sequence (P08515 whole entry): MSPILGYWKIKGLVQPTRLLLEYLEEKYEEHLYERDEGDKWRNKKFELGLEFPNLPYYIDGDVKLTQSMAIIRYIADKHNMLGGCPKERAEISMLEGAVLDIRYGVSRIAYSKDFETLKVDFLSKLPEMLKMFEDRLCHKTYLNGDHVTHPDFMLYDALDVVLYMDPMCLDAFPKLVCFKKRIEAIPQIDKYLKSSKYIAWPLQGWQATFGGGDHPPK
Method: GST-pull down assays were performed (19, 20). Equivalent amounts of control GST-protein and GST-obscurin-PH were bound to glutathione-Sepharose beads and incubated with 3 mg/mL of His-tagged PI3K/p85-SH3 protein overnight at 4° C. in pull-down buffer (50 mM Tris, pH 7.5, 120 mM NaCl, 10 mM NaN3, 2 mM DTT, and 0.5% Tween). At the end of the incubation period, beads were washed five times with wash buffer (PBS with 10 mM NaN3 and 0.1% Tween), and bound proteins were eluted with 2× LDS buffer (Invitrogen), followed by boiling at 95° C. for 10 min and separation on a 4-12% bis-Tris gel. A His6-antibody (sc-803, Santa Cruz Biotechnology) was used for detection of immunoreactive bands with the Tropix chemiluminescence detection kit (Applied Biosystems).

Molecule: Nc1cc(C(F)(F)F)c(-c2cc(N3CCOCC3)nc(N3CCOCC3)n2)cn1 [BKM120]
phosphorylation level of AKT at serine-473 compared to vehicle DMSO ([1]; 1 μM BKM120): 0.3 fold
phosphorylation level of AKT at threonine-308 compared to vehicle DMSO ([1]; 1 μM BKM120): 0.1 fold
reduction in mammosphere formation ([2]; 0.1 mM BMK120, 10 days): 18%
reduction in mammosphere formation ([2]; 0.5 mM BMK120, 10 days): 89%
mammosphere formation ([2]; BKM120, 10 days): completely eliminated mammosphere formation
reduction in cell invasiveness relative to DMSO ([3]; BKM120 0-1 mM): 15-60%
wound healing ([4]; 1 mM BKM120, after 6 h): ~6%
cell viability (reduction of AlamarBlue) versus vehicle DMSO [5]: No significant changes; also recorded: did not affect their survival and growth
cell morphology and cell-cell junction formation [6]: (re)acquired an epithelial appearance and were able to form cell-cell junctions
expression level of E-cadherin (increase) ([7]; 1 μM BKM120): 2.1 fold
expression level of N-cadherin (decrease) ([7]; 1 μM BKM120): 0.5 fold
expression level of Slug (decrease) ([7]; 1 μM BKM120): 0.3 fold
expression level of Twist (decrease) ([7]; 1 μM BKM120): 0.5 fold
expression level of β-catenin (increase) ([7]; 1 μM BKM120): 5 fold
migration speed compared to DMSO treated cells ([8]; microchannels 6, 10, 20 and 50 mm wide): significantly reduced migration
chemotactic index (CI) relative to vehicle control ([8]; statistically significant in narrow channels (6 mm)): lower chemotactic index

Molecule: O=c1cc(N2CCOCC2)oc2c(-c3ccccc3)cccc12 [LY294002]
phosphorylation level of AKT at serine-473 compared to vehicle DMSO ([1]; 25 μM LY294002): 0.4 fold
phosphorylation level of AKT at threonine-308 compared to vehicle DMSO ([1]; 25 μM LY294002): 0.4 fold
reduction in mammosphere formation ([2]; 5 mM LY294002, 10 days): 36%
reduction in mammosphere formation ([2]; 10 mM LY294002, 10 days): 58%
reduction in cell invasiveness relative to DMSO ([3]; LY294002 0-25 mM): 50-95%
wound healing ([4]; 25 mM LY294002, after 6 h): ~6%
cytotoxicity at 24 h, 25 µM [9]: ~5%
expression level of E-cadherin (increase) ([7]; 25 μM LY294002): 1.8 fold
expression level of N-cadherin (decrease) ([7]; 25 μM LY294002): 0.3 fold
expression level of Slug (decrease) ([7]; 25 μM LY294002): 0.6 fold
expression level of Twist (decrease) ([7]; 25 μM LY294002): 0.4 fold
expression level of β-catenin (increase) ([7]; 25 μM LY294002): 1.3 fold

Kd (GST-obscurin-PH): ~50 nM
B1: HIS-PI3K/p85-SH3 (other, human, UniProt O00459 4-80, looked up)
chain: PEGFQYRALYPFRRERPEDLELLPGDVLVVSRAALQALGVAEGGERCPQSVGWMPGLNERTRQRGDFPGTYVEFLGP
notes: domain: Src Homology 3 (SH3) domain; Expressed in bacteria, about 10 kDa; also called His-tagged PI3K/p85-SH3 protein; HIS-PI3K-p85/SH3 domain; not shown: His tag and vector-encoded residues of pET-30a(+)
binding result (control GST-protein): no binding (tested: 3 mg/mL of His-tagged PI3K/p85-SH3)
